Where a SMILES comes first, the peptide text is derived from it. Bridges are numbered along the chain shown (N, C = ends).
Assays:
[1] = target: T1, IL-18 Binding Protein (IL-18BP) (Homo sapiens, UniProt O95998); assay: Direct binding ELISA for IL-18BP; settings: C-terminally biotinylated forms of peptides; at up to 100 nM IL-18BP
T1 construct: purchased ACROBiosystems (Acro); R&D Systems ILP-H5253; 119-BP
T1 sequence (O95998 31-194): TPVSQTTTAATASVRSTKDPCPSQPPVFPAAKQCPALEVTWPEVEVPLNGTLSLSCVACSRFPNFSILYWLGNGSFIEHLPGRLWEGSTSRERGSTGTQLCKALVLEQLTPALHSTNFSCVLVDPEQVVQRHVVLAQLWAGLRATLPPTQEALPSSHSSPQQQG
Description: Binding of synthetic monomer peptides to IL-18 Binding Protein (IL-18BP) was measured using a direct binding ELISA. Briefly, 96-well ELISA plates were coated with NeutrAvidin (NA) at 5 μg per well in PBS, washed, then blocked with PBS containing 1% BSA. Wells were washed and representative peptides, synthesized with a C-terminal biotin were diluted to 300 nM in assay buffer and added to the NA coated wells. Wells were washed and serial dilutions starting at 100 nM of IL-18R subunits, IL-18BP from either of two sources (Acro #ILP-H5253 and R&D #119-BP), and control IgG Fc fusions) were added to the wells and incubated for 1 hr at 4° C. Then plates were washed and goat anti-human IgG Fc-HRP (Southern Biotech #2048-05) detection antibody was added for 1 hr. Wells were developed with TMB for 5-15 min and the enzyme reaction was stopped with a H2SO4 solution.

IL-18R = target: T2, IL-18R (Homo sapiens, UniProt O95256+Q13478); assay: HEK-BLUE IL18R reporter assay for IL-18BP/IL-18 interaction (agonist activity with and without IL-18BP); assay type: cell-based; settings: IL-18BP up to 100 nM; 30 nM dimer 10; FIG. 22B
T2 construct: host or cells: HEK293 (HEK-BLUE IL-18 reporter cell line)
T2 sequence (Q13478 19-541): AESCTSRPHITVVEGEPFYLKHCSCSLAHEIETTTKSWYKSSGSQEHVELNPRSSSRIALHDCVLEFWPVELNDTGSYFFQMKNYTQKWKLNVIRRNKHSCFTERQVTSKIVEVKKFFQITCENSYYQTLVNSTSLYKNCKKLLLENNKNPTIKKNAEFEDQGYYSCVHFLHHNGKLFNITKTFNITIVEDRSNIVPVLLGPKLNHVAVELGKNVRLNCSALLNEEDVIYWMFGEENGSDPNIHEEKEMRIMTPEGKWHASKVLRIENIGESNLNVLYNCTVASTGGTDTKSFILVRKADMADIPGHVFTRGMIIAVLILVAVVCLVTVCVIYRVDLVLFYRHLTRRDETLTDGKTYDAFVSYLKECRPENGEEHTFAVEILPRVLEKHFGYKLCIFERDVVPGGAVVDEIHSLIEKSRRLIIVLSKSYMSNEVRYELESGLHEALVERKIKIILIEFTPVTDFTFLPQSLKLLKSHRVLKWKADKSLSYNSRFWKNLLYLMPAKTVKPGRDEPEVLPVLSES
T2 sequence (O95256 20-599): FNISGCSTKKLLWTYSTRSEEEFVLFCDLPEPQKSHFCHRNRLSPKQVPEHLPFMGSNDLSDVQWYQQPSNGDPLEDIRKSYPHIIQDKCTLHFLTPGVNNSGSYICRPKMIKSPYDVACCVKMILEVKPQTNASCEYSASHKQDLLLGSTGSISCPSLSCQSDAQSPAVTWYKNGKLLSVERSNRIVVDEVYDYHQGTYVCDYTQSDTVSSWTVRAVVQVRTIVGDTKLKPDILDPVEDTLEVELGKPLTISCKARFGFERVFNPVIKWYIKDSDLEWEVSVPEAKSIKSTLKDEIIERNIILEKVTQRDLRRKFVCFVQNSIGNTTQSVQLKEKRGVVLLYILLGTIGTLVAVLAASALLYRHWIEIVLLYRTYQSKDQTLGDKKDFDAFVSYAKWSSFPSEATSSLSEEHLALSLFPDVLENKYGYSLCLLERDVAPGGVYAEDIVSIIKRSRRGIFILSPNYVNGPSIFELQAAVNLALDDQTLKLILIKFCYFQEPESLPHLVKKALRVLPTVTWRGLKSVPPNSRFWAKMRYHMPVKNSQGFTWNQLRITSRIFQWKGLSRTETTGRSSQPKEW
Excerpt: IL-18 is negatively regulated by a decoy receptor called IL-18 binding protein (IL-18BP), a secreted antagonist that binds IL-18 with extremely high affinity. HEK-BLUE™ IL-18 reporter cell line (InvivoGen #hkb-hmil 18, California, USA) was used to determine the impact of heterodimer peptides composed of IL-18Ra and IL-18Rb binding peptides on the IL-18BP/IL-18 interaction. The IL-18 Reporter assay, as described in detail in Example 2, was used to investigate this interaction with the following modifications.
A serial dilution (7-point, 10-fold) of IL-18BP Fc fusion (Acro #ILP-H5253) starting at 2 μM (20-fold final concentration) was prepared in test medium in a v-bottom polypropylene 96-well plate. Human recombinant IL-18 (R&D Systems #9124-IL-050/CF) and a representative peptide agonist were prepared at 30 pM and 600 nM respectively (both at 20-fold final concentration and at approximately their respective EC70s). […] Absorbance signal at 630 nm was then measured on a plate reader. Half maximal inhibition concentration (IC50) was calculated based on a variable slope and four parameter analysis using GraphPad Prism software. When no inhibition was measured the data points were connected without a curve fit. Absorbance readings were converted to percent total of signal span, for IL-18 and peptide agonist respectively, and graphed as NF-κB reporter activity (% max).

Row | binding to IL-18BP [1] | inhibition of agonist activity by IL-18BP (IL-18R) | Compound
1 | did not exhibit binding | – | CC(C)C[C@H](NC(=O)CNC(=O)CN)C(=O)N[C@H]1CSSC[C@@H](C(=O)N[C@@H](CC(C)C)C(=O)NCC(=O)NCC(=O)O)NC(=O)[C@@H]2CCCN2C(=O)CNC(=O)[C@H](CCCNC(=N)N)NC(=O)[C@H](C(C)C)NC(=O)[C@H]([C@@H](C)O)NC(=O)CNC(=O)CNC(=O)[C@H](Cc2ccccc2)NC(=O)[C@H](Cc2ccc(O)cc2)NC(=O)[C@H](Cc2c[nH]c3ccccc23)NC1=O [Family 2 synthetic construct, GGLCWYFGGTVRGPCLGG] (H-GGLCWYFGGTVRGPCLGG-OH; disulfide 4-15; N-terminus and C-terminus assumed)
2 | did not exhibit binding | – | CC[C@H](C)[C@@H]1NC(=O)[C@H](CCC(=O)O)NC(=O)[C@H](CO)NC(=O)[C@H](CC(C)C)NC(=O)[C@H](Cc2c[nH]cn2)NC(=O)[C@H](CC(=O)O)NC(=O)[C@H](CO)NC(=O)[C@H](CC(C)C)NC(=O)[C@H](Cc2c[nH]c3ccccc23)NC(=O)[C@H](CC(N)=O)NC(=O)[C@@H]2CCCN2C(=O)[C@@H](NC(=O)CNC(=O)CN)CSSC[C@@H](C(=O)NCC(=O)NCC(=O)O)NC(=O)[C@H](Cc2c[nH]c3ccccc23)NC1=O [Dimer 5C09, GGCPNWLSDHLSEIWCGG] (H-GGCPNWLSDHLSEIWCGG-OH; disulfide 3-16; N-terminus and C-terminus assumed)
3 | – | does not inhibit | CC[C@H](C)[C@H](NC(=O)[C@@H]1CSSC[C@H](NC(=O)[C@H](CCC(=O)O)NC(=O)[C@H](Cc2ccccc2)NC(=O)[C@H](Cc2ccccc2)NC(=O)CNC(=O)CNC(=O)[C@H](CO)NC(=O)CNC(=O)CCc2cn(CC[C@H](NC(=O)[C@H](CC(C)C)NC(=O)[C@@H]3CSSC[C@H](NC(=O)[C@H](CC(C)C)NC(=O)CNC(=O)CN)C(=O)N[C@@H](Cc4c[nH]c5ccccc45)C(=O)N[C@@H](Cc4ccc(O)cc4)C(=O)N[C@@H](Cc4ccccc4)C(=O)NCC(=O)NCC(=O)N[C@@H]([C@@H](C)O)C(=O)N[C@@H](C(C)C)C(=O)N[C@@H](CCCNC(=N)N)C(=O)NCC(=O)N4CCC[C@H]4C(=O)N3)C(N)=O)nn2)C(=O)N[C@@H](Cc2ccccc2)C(=O)N[C@@H](Cc2ccc(O)cc2)C(=O)N[C@@H](CO)C(=O)N2CCC[C@H]2C(=O)NCC(=O)N[C@@H](Cc2c[nH]cn2)C(=O)N[C@@H](CCC(=O)O)C(=O)N[C@@H](Cc2c[nH]c3ccccc23)C(=O)N1)C(=O)N1CCC[C@H]1C(=O)N[C@@H](CO)C(=O)NCC(=O)NCC(N)=O [Dimer 10]
4 | did not exhibit binding | – | GGELCWRPFSFVDCEEGG [alpha Synthetic Fla Consensus Construct]

— patent US20240158457A1, “INTERLEUKIN-18 RECEPTOR BINDING POLYPEPTIDES AND USES THEREOF” (Medikine, Inc., priority 2022, published 2024)
